Biological target: fat mass and obesity-associated protein (FTO) (Homo sapiens, UniProt Q9C0B1)
Assay: SPR (Biacore T200); also thermal shift, CETSA, cell-free m6A demethylase assay
Assay type: binding

fat mass and obesity-associated protein (FTO), sequence (Q9C0B1 whole entry): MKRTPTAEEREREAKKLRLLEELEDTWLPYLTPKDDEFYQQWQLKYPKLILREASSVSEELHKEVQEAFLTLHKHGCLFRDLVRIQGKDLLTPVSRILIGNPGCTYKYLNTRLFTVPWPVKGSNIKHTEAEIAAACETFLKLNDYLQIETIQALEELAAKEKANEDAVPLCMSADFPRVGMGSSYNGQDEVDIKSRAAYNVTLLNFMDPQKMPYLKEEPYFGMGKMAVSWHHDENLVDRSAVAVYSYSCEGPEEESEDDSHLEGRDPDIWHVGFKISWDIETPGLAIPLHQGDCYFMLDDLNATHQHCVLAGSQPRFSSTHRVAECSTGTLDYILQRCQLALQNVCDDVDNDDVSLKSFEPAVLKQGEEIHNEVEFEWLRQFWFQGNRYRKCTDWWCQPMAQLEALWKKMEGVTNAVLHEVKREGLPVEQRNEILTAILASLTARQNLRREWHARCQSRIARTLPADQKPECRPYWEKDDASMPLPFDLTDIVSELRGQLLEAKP

Kd: 3.63 µM
Structure (SMILES): C/C(=C\C(=O)OCCCCCCCCC(=O)O)C[C@@H]1OC[C@H](C[C@@H]2O[C@H]2[C@@H](C)[C@H](C)O)[C@@H](O)[C@H]1O [Mupirocin]

Reference: publication PMC11005233, “Targeting FTO induces colorectal cancer ferroptotic cell death by decreasing SLC7A11/GPX4 expression” (Journal of Experimental & Clinical Cancer Research : CR, 2024)
